Laboratory results from patent US20050244414A1, “Method to ameliorate osteolysis and metastasis” (XENOTECH INCORPORATED, priority 1995, published 2005).

Assays:
[1] = system: bone resorption; settings: cited from earlier work
[2] = system: fetal rat long bone; assay: Bone resorption measured as 45Ca release in organ culture; assay type: cell-based; settings: stimulating factor alone at 10 ng/ml, 120 hours; untreated bones roughly 20%
Protocol: In this example, the percentage of labeled calcium (^45Ca) from fetal rat long bone was used as a measure of bone resorption. To label the bones, pregnant female rats at the 18th day of gestation were injected subcutaneously with 50 μCi of labeled calcium salt. The embryos were harvested the next day, at 19 days gestation, and long bones were obtained from the fetuses. The bones were cultured in standard media for 120 hours in the presence or absence of various putative bone resorption stimulation factors and in the presence and absence of the anti-PTH-rp (1-34) antibody used in Preparation A. The results are shown in FIG. 2.

Molecule | potency relative to etidronate, ability to inhibit bone resorption [1] | release of labeled calcium (45Ca) into the medium [2]
NCCC(O)(P(=O)(O)O)P(=O)(O)O [pamidronate] | approximately 100 times | 
parathyroid hormone-related protein [PTH-rp] |  | ~90%
PTH: parathyroid hormone, bone resorption stimulating factor added to culture medium (protein, UniProt P01270 32-115, looked up, Parathyroid hormone, parathyroid hormone, bone resorption stimulating factor added to culture medium) Parathyroid hormone: SVSEIQLMHNLGKHLNSMERVEWLRKKLQDVHNFVALGAPLAPRDAGSQRPRKKEDNVLVESHEKSLGEADKADVNVLTKAKSQ |  | ~90%
